Test results: patent publication US11390609B2, “Rho-associated protein kinase inhibitor, pharmaceutical composition comprising same, and preparation method and use thereof” (BEIJING TIDE PHARMACEUTICAL CO., LTD., priority 2017, dated 2022)
pIC50: −log10 of the molar value.

target: ROCK1 (Homo sapiens (Human), UniProt Q13464); test: ROCK1 kinase IC50 assay (biological test method similar to the ROCK2 assay); format: biochemical
Description: The kinase IC50 was determined by a commercialized CISBIO kinase detection kit, HTRF KinEASE-STK S2 kit (62ST2PEC). ROCK2 (01-119) employed in the reaction was purchased from Carna Biosciences.
Before the assay, the following working solutions as needed were formulated with corresponding reagents according to the instruction of the kinase detection kit: 1×kinase buffer, 5×STK-52 substrate working solution (1.5 μM) and 5×ATP working solution (1.5 μM), 5×ROCK2 kinase working solution, 4×Streptavidin-XL665 working solution, and 4×STK-Ab-Cryptate 2 detection solution. Then the assay was performed according to the following procedure.
A solution of a compound at a concentration of 10000 nM was prepared with the 1×kinase buffer containing 2.5% DMSO. Gradient dilution of the solution of the compound was performed with the kinase buffer containing DMSO, so as to obtain solutions of a test compound at 9 different concentrations. In addition to wells of test compounds, a positive well (containing all the reagents except the compound) and a negative well (containing all the reagents except the test compound and kinase) were set. Except for the control wells (positive and negative wells), a solution of a test compound (4 μL) was added to each of the reaction wells, and a solution of 2.5% DMSO was added to the control wells. Then the substrate ([…], 2 μL. 5×STK-S2 substrate working solution) was added to each of the reaction wells. The 5×ROCK2 kinase working solution (2 μL, containing 1.4 ng ROCK2 kinase) was added to each of the reaction wells except for the negative well, the volume of which was made up with the 1×kinase buffer (2 μL). The 5×ATP working solution (2 μL) was added to each of the reaction wells, and the mixtures were incubated at room temperature for 2 hours. After the kinase reaction was complete, the 4×Streptavidin-XL665 working solution was added to each of the reaction wells, the solutions were mixed, followed by immediate addition of the 4×STK-Ab-Cryptate 2 detection solution (5 μL), and the mixtures were incubated at room temperature for 1 hour. The fluorescence signal was read on ENVISION (Perkinelmer) (excitation wavelength: 320 nm, and emission wavelength: 665 nm and 615 nm). The inhibitory rate in each well was calculated based on the fluorescence intensity value: ER (Emission Ratio)=(fluorescence intensity at 665 nm/fluorescence intensity at 615 nm); inhibitory rate=(ERpositive−ERtest compound)/(ERpositive−ERnegative)*100%. Curves were plotted and fitted to obtain the median inhibitory concentration (IC50) of each teat compound with the PRISM 5.0 software.
According to a biological test method similar to the above, the IC50 values of the compounds on ROCK1 were tested.

Chain of ROCK1 (Q13464 whole entry, species assumed): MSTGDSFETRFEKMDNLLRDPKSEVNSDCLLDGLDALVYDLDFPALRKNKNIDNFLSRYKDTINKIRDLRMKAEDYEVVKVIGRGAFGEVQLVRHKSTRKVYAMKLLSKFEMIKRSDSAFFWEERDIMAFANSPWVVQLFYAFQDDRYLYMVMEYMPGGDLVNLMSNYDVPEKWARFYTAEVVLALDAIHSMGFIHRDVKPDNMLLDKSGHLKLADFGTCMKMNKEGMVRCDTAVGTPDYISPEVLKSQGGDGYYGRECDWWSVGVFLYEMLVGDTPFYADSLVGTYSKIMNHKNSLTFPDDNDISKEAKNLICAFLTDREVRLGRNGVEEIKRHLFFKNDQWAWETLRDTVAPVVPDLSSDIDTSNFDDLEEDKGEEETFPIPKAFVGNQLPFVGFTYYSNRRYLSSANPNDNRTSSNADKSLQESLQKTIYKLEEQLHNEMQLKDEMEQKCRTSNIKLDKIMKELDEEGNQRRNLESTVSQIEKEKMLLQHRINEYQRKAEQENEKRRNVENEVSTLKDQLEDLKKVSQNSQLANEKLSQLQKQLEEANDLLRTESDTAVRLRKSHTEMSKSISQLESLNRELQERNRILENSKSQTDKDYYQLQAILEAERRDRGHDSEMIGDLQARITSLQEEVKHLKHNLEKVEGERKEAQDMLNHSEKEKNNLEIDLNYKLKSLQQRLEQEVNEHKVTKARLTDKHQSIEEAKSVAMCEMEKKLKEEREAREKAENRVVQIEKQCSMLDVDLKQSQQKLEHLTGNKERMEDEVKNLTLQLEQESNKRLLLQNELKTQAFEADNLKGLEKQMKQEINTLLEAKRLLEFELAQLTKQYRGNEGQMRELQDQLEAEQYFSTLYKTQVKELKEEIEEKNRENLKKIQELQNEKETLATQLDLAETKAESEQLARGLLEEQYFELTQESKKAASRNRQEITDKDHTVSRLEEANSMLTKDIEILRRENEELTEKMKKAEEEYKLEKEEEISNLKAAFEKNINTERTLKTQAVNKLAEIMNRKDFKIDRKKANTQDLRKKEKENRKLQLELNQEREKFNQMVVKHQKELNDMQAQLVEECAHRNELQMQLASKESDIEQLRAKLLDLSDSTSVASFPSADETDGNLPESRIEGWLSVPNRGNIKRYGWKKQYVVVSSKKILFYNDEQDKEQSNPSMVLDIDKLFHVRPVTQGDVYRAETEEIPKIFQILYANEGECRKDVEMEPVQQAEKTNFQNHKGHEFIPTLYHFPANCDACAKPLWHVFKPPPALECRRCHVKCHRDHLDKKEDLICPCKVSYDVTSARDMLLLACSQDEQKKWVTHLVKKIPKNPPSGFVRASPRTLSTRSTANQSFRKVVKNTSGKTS

Row | Compound | pIC50
1 | CN(C(=O)c1cc2ccc(-c3nccc(Nc4ccc(-c5cn[nH]c5)cc4)n3)cc2[nH]1)C1CCNC1 (centres unmarked) [TDI01345, 6-(4-((4-(1H-pyrazol-4-yl)phenyl)-amino)-pyrimidin-2-yl)-N-methyl-N-(pyrrolidin-3-yl)-1H-indole-2-carboxamide] | 5.41
2 | O=C(NC1CCOCC1)c1cc2ccc(-c3nccc(Nc4ccc(-c5cn[nH]c5)cc4)n3)cc2[nH]1 [TDI01338, 6-(4-((4-(1H-pvrazol-4-yl)phenyl)-amino)-pyrimidin-2-yl)-N-(tetrahydro-2H-pyran-4-yl)-1H-indole-2-carboxamide] | 5.74
3 | CN(CC#N)C(=O)c1cc2ccc(-c3nccc(Nc4ccc(-c5cn[nH]c5)cc4)n3)cc2[nH]1 [TDI01430, 6-(4-((4-(1H-pyrazol-4-yl)phenyl)amino)pyrimidin-2-yl)-N-(cyanomethyl)-N-methyl-1H-indole-2-carboxamide] | < 5.00
4 | CCN(CC)C(=O)c1cc2ccc(-c3nccc(Nc4ccc(-c5cn[nH]c5)cc4)n3)cc2[nH]1 [TDI01332, 6-(4-((4-(1H-pyrazol-4-yl)phenyl)-amino)-pyrimidin-2-yl)-N,N-diethyl-1H-indole-2-carboxamide] | 5.20
5 | O=C(Nc1ccncc1)c1cc2ccc(-c3nccc(Nc4ccc(-c5cn[nH]c5)cc4)n3)cc2[nH]1 [TDI01363, 6-(4-((4-(1H-pyrazol-4-yl)phenyl)-amino)-pyrimidin-2-yl)-N-(pyridin-4-yl)-1H-indole-2-carboxamide] | < 5.00
6 | Cc1c(Nc2ccnc(-c3ccc4cc(C(=O)Nc5ccnnc5)[nH]c4c3)n2)ccc2[nH]ncc12 [TDI01276, 6-(4-((4-methyl-1H-indazol-5-yl)amino)-pyrimidin-2-yl)-N-(pyridazin-4-yl)-1H-indole-2-carboxamide] | < 5.00
7 | CCN(CC)C(=O)c1cc2ccc(-c3ncc(OC)c(Nc4ccc(-c5cn[nH]c5)cc4)n3)cc2[nH]1 [TDI01823, 6-(4-((4-(1H-pyrazol-4-yl)phenyl)-amino)-5-methoxy-pyrimidin-2-yl)-N,N-diethyl-1H-indole-2-carboxamide] | < 5.00
8 | CN(C(=O)c1cc2ccc(-c3nccc(Nc4ccc(-c5cn[nH]c5)cc4)n3)cc2[nH]1)C(CO)CO [TDI01344-2A, 6-(4-((4-(1H-pyrazol-4-yl)phenyl)-amino)-pyrimidin-2-yl)-N-(1,3-dihydroxy-propan-2-yl)-N-methyl-1H-indole-2-carboxamide] | 5.38
9 | COc1ccc(NC(=O)c2cc3ccc(-c4nccc(Nc5ccc6[nH]ncc6c5)n4)cc3[nH]2)cn1 [TDI01315, 6-(4-((1H-indazol-5-yl)amino)-pyrimidin-2-yl)-N-(6-methoxy-pyridin-3-yl)-1H-indole-2-carboxamide] | 5.67
10 | O=C(Nc1ccnnc1)c1cc2ccc(-c3nc(Nc4ccc5[nH]ncc5c4)c4sccc4n3)cc2[nH]1 [TDI01175, 6-(4-((1H-indazol-5-yl)amino)-thieno[3,2-d]pyrimidin-2-yl)-N-(pyridazin-4-yl)-1H-indole-2-carboxamide] | 5.28
11 | O=C(Nc1ccnnc1)N1Cc2ccc(-c3nccc(Nc4ccc5[nH]ncc5c4)n3)cc2C1 [TDI01237, 5-(4-((1H-indazol-5-yl)amino)pyrimidin-2-yl)-N-(pyridazin-4-yl)isoindoline-2-carboxamide] | < 5.00
12 | CC(C)NC(=O)c1cc2ccc(-c3nc(Nc4ccc5[nH]ncc5c4)c4ccn(CCN(C)C)c4n3)cc2s1 [TDI01122, 6-(4-((1H-indazol-5-yl)amino)-7-(2-(dimethylami-no)ethyl)-7H-pyrrolo[2,3-d]pyrimidin-2-yl)-N-isopropylben-zo[b]thiophene-2-carboxamide] | 5.49
13 | CN(C)C(=O)c1cc2ccc(-c3nccc(Nc4ccc(-c5cn[nH]c5)cc4)n3)cc2[nH]1 [TDI01294, 6-(4-((4-(1H-pyrazol-4-yl)phenyl)-amino)-pyrimidin-2-yl)-N,N-dimethyl-1H-indole-2-carboxamide] | < 5.00
14 | O=C(Nc1ccncc1)c1cc2ccc(-c3nccc(Nc4ccc5[nH]ncc5c4)n3)cc2[nH]1 [TDI01153, 6-(4-((1H-indazol-5-yl)amino)-pyrimidin-2-yl)-N-(pyridin-4-yl)-1H-indole-2-carboxamide] | 5.57
15 | CC(C)NC(=O)C1COc2ccc(-c3nccc(Nc4ccc5[nH]ncc5c4)n3)cc2O1 (centres unmarked) [TDI01103, 7-(4-((1H-indazol-5-yl)amino)pyrimidin-2-yl)-N-isopropyl-2,3-dihydrobenzo[b][1,4]dioxine-2-carboxamide] | 5.69
16 | CN(C(=O)c1cc2ccc(-c3nccc(Nc4ccc(-c5cn[nH]c5)cc4)n3)cc2[nH]1)C1CCC1 [TDI01420, 6-(4-((4-(1H-pyrazol-4-yl)phenyl)amino)pyrimidin-2-yl)-N-cyclobutyl-N-methyl-1H-indole-2-carboxamide] | 5.03
17 | CNC(=O)c1cc2ccc(-c3nccc(Nc4ccc5[nH]ncc5c4)n3)cc2s1 [TDI01109, 6-(4-((1H-indazol-5-yl)amino)pyrimidin-2-yl)-N-methylben-zo[b]thiophene-2-carboxamide] | < 5.00
18 | O=C(Nc1cccnc1)c1cc2ccc(-c3nccc(Nc4ccc(-c5cn[nH]c5)cc4)n3)cc2[nH]1 [TDI01397, 6-(4-((4-(1H-pyrazol-4-yl)phenyl)-amino)-pyrimidin-2-yl)-N-(pyridin-3-yl)-1H-indole-2-carboxamide] | 5.22
19 | O=C(c1cc2ccc(-c3nccc(Nc4ccc(-c5cn[nH]c5)cc4)n3)cc2[nH]1)N1CCC2(CCNCC2)CC1 [TDI01425, (6-(4-((4-(1H-pyrazol-4-yl)phenyl)-amino)-pyrimidin-2-yl)-1H-indol-2-yl)(3,9-diazaspiro[5.5]undecan-3-yl)methanone] | 5.53
20 | CN(C(=O)c1cc2ccc(-c3nccc(Nc4ccc(-c5cn[nH]c5)cc4)n3)cc2[nH]1)C1CC(O)C1 (centres unmarked) [TDI01418, 6-(4-((4-(1H-pyrazol-4-yl)phenyl)amino)pyrimidin-2-yl)-N-(3-hydroxycyclobutyl)-N-methyl-1H-indole-2-carboxamide] | 5.27

The next compounds have a higher pIC50 than those just listed; values first:

Row | pIC50 | Compound
21 | 5.83 | CC(C)NC(=O)c1cc2ccc(-c3nc(Nc4ccc(-c5cn[nH]c5)cc4)c4sccc4n3)cc2[nH]1 [TDI01370, 6-(4-((4-(1H-pyrazol-4-yl)phenyl)-amino)-thieno[3,2-d]pyrimidin-2-yl)-N-isopropyl-1H-indole-2-carboxamide]
22 | 5.88 | CC(C)NC(=O)c1cc2ccc(-c3nc(Nc4ccc5[nH]ncc5c4)c4scnc4n3)cc2[nH]1 [TDI01149, 6-(7-((1H-indazol-5-yl)ami-no)thiazolo[4,5-d]pyrimidin-5-yl)-N-isopropyl-1H-indole-2-carboxamide]
23 | 5.99 | CC(C)NC(=O)c1cc2ccc(-c3nccc(Nc4ccc(-c5cn[nH]c5)cc4)n3)cc2[nH]1 [TDI01280, 6-(4-((4-(1H-pyrazol-4-yl)phenyl)ami-no)pyrimidin-2-yl)-N-isopropyl-1H-indole-2-carboxamide]
24 | 6.05 | O=C(NC1CC1)c1cc2ccc(-c3nccc(Nc4ccc5[nH]ncc5c4)n3)cc2[nH]1 [TDI01151, 6-(4-((1H-indazol-5-yl)amino)-pyrimidin-2-yl)-N-cyclopropyl-1H-indole-2-carboxamide]
25 | 6.06 | CC(C)NC(=O)c1cc2ccc(-c3nccc(Nc4ccc5[nH]ncc5c4)n3)cc2s1 [TDI01104, 6-(4-((1H-indazol-5-yl)amino)pyrimidin-2-yl)-N-isopropylben-zo[b]thiophene-2-carboxamide]
26 | 6.08 | CC(C)NC(=O)c1cc2ccc(-c3nc(Nc4ccc5[nH]ncc5c4)c4sccc4n3)cc2[nH]1 [TDI01141, 6-(4-((1H-indazol-5-yl)amino)thieno[3,2-d]pyrimidin-2-yl)-N-isopropyl-1H-indole-2-carboxamide]
27 | 6.15 | O=C(Nc1ccc2[nH]ncc2c1)c1cc2ccc(-c3nccc(Nc4ccc5[nH]ncc5c4)n3)cc2[nH]1 [TDI01182, 6-(4-((1H-indazol-5-yl)amino)-pyrimidin-2-yl)-N-(1H-indazol-5-yl)-1H-indole-2-carboxamide]
28 | 6.25 | CC(C)(C)OC(=O)n1cc(NC(=O)c2cc3ccc(-c4nccc(Nc5ccc6[nH]ncc6c5)n4)cc3[nH]2)cn1 [TDI01200, tert-butyl 4-(6-(4-((1H-indazol-5-yl)amino)-pyrimidin-2-yl)-1H-indole-2-carboxamido)-1H-pyrazole-1-carboxylate]
29 | 6.26 | O=C(NC1CCOC1)c1cc2ccc(-c3nccc(Nc4ccc5[nH]ncc5c4)n3)cc2s1 (centres unmarked) [TDI01113, 6-(4-((1H-indazol-5-yl)amino)pyrimidin-2-yl)-N-(tetrahydrofuran-3-yl)benzo[b]thiophene-2-carboxamide]
